Reference: patent publication US20230117034A1, “PYRAZOLOTRIAZINES” (Bayer Aktiengesellschaft, priority 2019, published 2023)

Key:
[1] = target: T1, CDK9/CycT1 (Homo sapiens, UniProt P50750); assay: CDK9/CycT1 high ATP kinase assay (TR-FRET, 2 mM ATP); assay type: biochemical; settings: 2 mM ATP (high ATP); median; read-out: CDK9/CyclinT1, 2 mM ATP (high ATP), IC50 (median)
T1 construct: Recombinant full-length His-tagged human CDK9 and CycT1; purchased Life Technologies PV4131; host or cells: insect cells
Summary of the method: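 Full-length His-tagged human CDK9/CycT1 (insect cell, ~0.5 μg/mL) preincubated 15 min at 22 °C with compound in Tris pH 8.0, MgCl2, DTT buffer before reaction with biotinylated peptide substrate at high ATP (2 mM).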

[2] = system: MDA-MB-231, human breast cancer cells; assay: Proliferation assay MDA-MB-231 (crystal violet, 4 days); assay type: cell-based; settings: Homo sapiens, MDA-MB-231, 96 h, MDA-MB-231 cells, median, read-out: Prolif-MDA MB-231, IC50-[mol/l] (median)
Summary of the method: (§1)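 Growth was measured by crystal violet staining after cells had been treated with compounds (0.01-10 µmol/L, 0.1% DMSO) for 4 days, beginning 24 h after seeding. Values were normalized to a zero-point plate and to untreated controls, and IC50 values were derived by a four-parameter fit.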

[3] = system: CAL-120, human breast adenocarcinoma cells; assay: Proliferation assay CAL-120 (crystal violet, 4 days); assay type: cell-based; settings: Homo sapiens, CAL-120, 96 h, CAL-120 cells, median, read-out: Prolif-CAL-120, IC50-[mol/l] (median)
Summary of the method: as §1

[4] = target: T2, CYCLIN K (nuclear staining in CAL-120 cells) (Homo sapiens, UniProt O75909); assay: CYCLIN K nuclear protein level: immunofluorescence high content analysis (CAL-120); assay type: cell-based; settings: 24 h, 50% reduction of nuclear CCNK staining intensity, median, read-out: CYCLIN K degradation IF, DC50-[mol/l] (median)
T2 construct: endogenous in cells; host or cells: CAL-120 human breast cancer cells (DSMZ ACC 459)
Summary of the method: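 Readout is automated confocal image analysis of nuclear cyclin K immunofluorescence (Hoechst nuclei) after PFA fixation. Cells were CAL-120, exposed to compound dose-response 24 h at 37 °C; values are DC50 for halving nuclear CCNK signal relative to DMSO and control wells.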

T2 sequence (O75909 whole entry): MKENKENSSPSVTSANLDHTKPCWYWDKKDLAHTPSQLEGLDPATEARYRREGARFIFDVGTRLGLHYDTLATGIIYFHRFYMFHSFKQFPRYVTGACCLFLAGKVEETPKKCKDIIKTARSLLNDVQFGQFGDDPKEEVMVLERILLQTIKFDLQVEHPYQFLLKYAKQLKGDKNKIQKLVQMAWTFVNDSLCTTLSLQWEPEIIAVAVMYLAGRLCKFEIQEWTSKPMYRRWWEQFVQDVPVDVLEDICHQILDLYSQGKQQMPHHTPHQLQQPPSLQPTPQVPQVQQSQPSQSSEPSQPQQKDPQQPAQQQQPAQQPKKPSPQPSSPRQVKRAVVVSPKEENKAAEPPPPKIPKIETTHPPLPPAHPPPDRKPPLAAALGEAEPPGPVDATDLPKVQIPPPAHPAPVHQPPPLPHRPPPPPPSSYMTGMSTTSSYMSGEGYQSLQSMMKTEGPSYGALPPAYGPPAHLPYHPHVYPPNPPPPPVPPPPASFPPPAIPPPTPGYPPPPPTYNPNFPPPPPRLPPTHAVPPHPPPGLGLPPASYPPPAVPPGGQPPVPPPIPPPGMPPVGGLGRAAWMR
T2 sequence (Q9NYV4 whole entry partner): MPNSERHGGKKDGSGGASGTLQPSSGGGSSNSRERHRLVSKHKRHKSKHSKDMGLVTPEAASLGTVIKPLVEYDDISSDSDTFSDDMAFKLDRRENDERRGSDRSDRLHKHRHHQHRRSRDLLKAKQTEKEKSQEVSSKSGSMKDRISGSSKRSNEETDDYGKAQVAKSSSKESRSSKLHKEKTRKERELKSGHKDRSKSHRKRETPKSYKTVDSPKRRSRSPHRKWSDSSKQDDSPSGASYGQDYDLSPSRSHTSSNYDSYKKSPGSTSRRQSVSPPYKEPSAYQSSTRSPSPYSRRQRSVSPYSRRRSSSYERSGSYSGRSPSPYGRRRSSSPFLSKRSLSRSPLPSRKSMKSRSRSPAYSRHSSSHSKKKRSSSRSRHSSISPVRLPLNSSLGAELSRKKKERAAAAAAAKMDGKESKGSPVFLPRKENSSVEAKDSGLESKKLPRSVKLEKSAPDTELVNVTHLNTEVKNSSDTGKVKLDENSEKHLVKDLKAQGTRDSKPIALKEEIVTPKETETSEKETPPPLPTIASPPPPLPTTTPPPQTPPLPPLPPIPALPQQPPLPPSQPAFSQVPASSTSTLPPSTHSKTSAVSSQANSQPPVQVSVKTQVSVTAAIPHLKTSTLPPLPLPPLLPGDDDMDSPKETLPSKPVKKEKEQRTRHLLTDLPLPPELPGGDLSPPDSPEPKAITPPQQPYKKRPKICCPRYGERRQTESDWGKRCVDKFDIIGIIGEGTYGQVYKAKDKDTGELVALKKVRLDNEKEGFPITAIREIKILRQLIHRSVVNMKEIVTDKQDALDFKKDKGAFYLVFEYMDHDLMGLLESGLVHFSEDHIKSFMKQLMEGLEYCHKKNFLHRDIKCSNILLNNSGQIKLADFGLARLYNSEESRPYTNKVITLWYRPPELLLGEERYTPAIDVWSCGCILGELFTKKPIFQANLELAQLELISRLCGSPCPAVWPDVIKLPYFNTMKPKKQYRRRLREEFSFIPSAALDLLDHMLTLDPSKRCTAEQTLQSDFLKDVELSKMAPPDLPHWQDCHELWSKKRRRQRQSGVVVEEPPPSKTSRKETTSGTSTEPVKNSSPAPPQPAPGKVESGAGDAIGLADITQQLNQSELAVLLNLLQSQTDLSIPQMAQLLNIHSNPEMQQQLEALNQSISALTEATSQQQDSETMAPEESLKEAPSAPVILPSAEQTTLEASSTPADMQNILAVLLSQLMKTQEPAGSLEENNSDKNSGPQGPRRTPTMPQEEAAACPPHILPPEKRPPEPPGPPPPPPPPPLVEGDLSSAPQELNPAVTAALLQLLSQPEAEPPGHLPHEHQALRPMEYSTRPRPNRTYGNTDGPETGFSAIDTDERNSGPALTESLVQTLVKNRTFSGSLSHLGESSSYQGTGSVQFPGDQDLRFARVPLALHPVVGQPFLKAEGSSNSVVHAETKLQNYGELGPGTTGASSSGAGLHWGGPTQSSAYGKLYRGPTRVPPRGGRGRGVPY
T1 sequence (P50750 whole entry): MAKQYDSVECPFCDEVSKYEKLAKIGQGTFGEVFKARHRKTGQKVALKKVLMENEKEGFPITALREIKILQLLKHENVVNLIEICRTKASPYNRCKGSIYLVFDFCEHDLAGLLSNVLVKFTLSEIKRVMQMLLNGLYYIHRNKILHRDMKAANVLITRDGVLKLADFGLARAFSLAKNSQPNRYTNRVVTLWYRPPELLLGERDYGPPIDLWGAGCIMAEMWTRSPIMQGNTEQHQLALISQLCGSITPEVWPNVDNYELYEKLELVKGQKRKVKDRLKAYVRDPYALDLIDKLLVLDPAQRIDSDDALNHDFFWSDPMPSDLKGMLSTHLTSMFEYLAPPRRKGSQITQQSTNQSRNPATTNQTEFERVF
T1 sequence (O60563 whole entry partner): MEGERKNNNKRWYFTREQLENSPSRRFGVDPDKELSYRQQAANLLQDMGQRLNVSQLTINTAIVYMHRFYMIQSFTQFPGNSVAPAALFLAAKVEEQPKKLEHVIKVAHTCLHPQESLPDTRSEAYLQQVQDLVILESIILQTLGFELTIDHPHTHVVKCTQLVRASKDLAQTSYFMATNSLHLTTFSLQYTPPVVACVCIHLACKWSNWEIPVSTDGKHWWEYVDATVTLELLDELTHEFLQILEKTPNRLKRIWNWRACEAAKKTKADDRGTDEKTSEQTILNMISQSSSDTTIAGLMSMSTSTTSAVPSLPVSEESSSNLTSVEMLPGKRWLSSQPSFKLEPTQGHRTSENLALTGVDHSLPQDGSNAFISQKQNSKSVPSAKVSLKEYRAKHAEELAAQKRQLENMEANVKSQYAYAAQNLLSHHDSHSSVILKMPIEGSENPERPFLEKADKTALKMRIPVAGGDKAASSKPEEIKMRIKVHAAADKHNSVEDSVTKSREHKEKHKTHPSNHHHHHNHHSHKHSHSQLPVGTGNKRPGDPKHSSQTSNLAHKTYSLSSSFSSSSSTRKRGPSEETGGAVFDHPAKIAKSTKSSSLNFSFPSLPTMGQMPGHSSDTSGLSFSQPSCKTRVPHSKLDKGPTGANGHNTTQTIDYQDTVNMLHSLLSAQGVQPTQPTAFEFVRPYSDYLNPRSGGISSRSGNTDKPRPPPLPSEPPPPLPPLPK

Row | IC50 [1] | IC50 [2] | IC50 [3] | DC50 [4] | Compound
1 | > 20000 nM | 20.7 nM | 3.56 nM | 1.95 nM | C[C@H]1CN(c2nc(NCc3nc4ccccc4[nH]3)n3ncc(Br)c3n2)CCN1 [Example 169, N-[(1H-benzimidazol-2-yl)methyl]-8-bromo-2-[(3S)-3-methylpiperazin-1-yl]pyrazolo[1,5-a][1,3,5]triazin-4-amine]
2 | > 20000 nM | 10.2 nM | 3.7 nM | 0.103 nM | Fc1cccc2[nH]c(CNc3nc(N4CCNCC4)nc4c(C5CC5)cnn34)nc12 [Example 182, 8-cyclopropyl-N-[(4-fluoro-1H-benzimidazol-2-yl)methyl]-2-(piperazin-1-yl)pyrazolo[1,5-a][1,3,5]triazin-4-amine]
3 | > 20000 nM | 44.6 nM | 29.5 nM | 4.51 nM | Clc1cnn2c(NCc3nc4ccccc4[nH]3)nc(N3CCOCC3)nc12 [Example 15, N-[(1H-benzimidazol-2-yl)methyl]-8-chloro-2-(morpholin-4-yl)pyrazolo[1,5-a][1,3,5]triazin-4-amine]
4 | > 20000 nM | 561 nM | 436 nM |  | CN(CCN1CCCC1)c1nc(NCc2nc3ccccc3[nH]2)n2ncc(Br)c2n1 [Example 239, N4-(1H-benzimidazol-2-ylmethyl)-8-bromo-N2-methyl-N2-(2-pyrrolidin-1-ylethyl)pyrazolo[1,5-a][1,3,5]triazine-2,4-diamine]
5 | > 20000 nM | 15.6 nM | 4.99 nM | 0.763 nM | COc1cccc2[nH]c(CNc3nc(N4CCN(C)CC4)nc4c(C5CC5)cnn34)nc12 [Example 197, 8-cyclopropyl-N-[(4-methoxy-1H-benzimidazol-2-yl)methyl]-2-(4-methylpiperazin-1-yl)pyrazolo[1,5-a][1,3,5]triazin-4-amine]
6 | > 20000 nM | 315 nM | 274 nM |  | Brc1cnn2c(NCc3nc4ccccc4[nH]3)nc(NCCN3CCCC3)nc12 [Example 235, N4-(1H-benzimidazol-2-ylmethyl)-8-bromo-N2-(2-pyrrolidin-1-ylethyl)pyrazolo[1,5-a][1,3,5]triazine-2,4-diamine]
7 | > 20000 nM | 152 nM | 95.8 nM |  | OC1(C(F)(F)F)CCN(c2nc(NCc3nc4ccccc4[nH]3)n3ncc(Br)c3n2)C1 (centres unmarked) [Example 200, 1-[4-(1H-benzimidazol-2-ylmethylamino)-8-bromo-pyrazolo[1,5-a][1,3,5]triazin-2-yl]-3-(trifluoromethyl)pyrrolidin-3-ol]
8 | > 20000 nM | 107 nM |  | 4.63 nM | OC1CCN(c2nc(NCc3nc4ccccc4[nH]3)n3ncc(Br)c3n2)CC1 [Example 17, 1-(4-{[(1H-benzimidazol-2-yl)methyl]amino}-8-bromopyrazolo[1,5-a][1,3,5]triazin-2-yl)piperidin-4-ol]
9 | > 20000 nM | 707 nM | 70.4 nM |  | O=C1CN(c2nc(NCc3nc4ccccc4[nH]3)n3ncc(Br)c3n2)CCN1 [Example 167, 4-(4-{[(1H-benzimidazol-2-yl)methyl]amino}-8-bromopyrazolo[1,5-a][1,3,5]triazin-2-yl)piperazin-2-one]
10 | > 20000 nM | 47 nM |  |  | CC(C)c1cnn2c(NCc3nc4ccccc4[nH]3)nc(Nc3ccncc3)nc12 [Example 14, N^4-[(1H-benzimidazol-2-yl)methyl]-8-(propan-2-yl)-N^2-(pyridin-4-yl)pyrazolo[1,5-a][1,3,5]triazine-2,4-diamine]
11 | > 20000 nM |  |  |  | CC(C)c1cnn2c(NCc3nc4ccccc4[nH]3)nc(Nc3ccccc3)nc12 [Example 13, N^4-[(1H-benzimidazol-2-yl)methyl]-N^2-phenyl-8-(propan-2-yl)pyrazolo[1,5-a][1,3,5]triazine-2,4-diamine]
12 | > 20000 nM | 98 nM | 31.1 nM |  | COc1cccc2[nH]c(CNc3nc(N4C[C@H]5C[C@@H]4CO5)nc4c(C5CC5)cnn34)nc12 [Example 198, 8-cyclopropyl-N-[(4-methoxy-1H-benzimidazol-2-yl)methyl]-2-[(1R,4R)-2-oxa-5-azabicyclo[2.2.1]heptan-5-yl]pyrazolo[1,5-a][1,3,5]triazin-4-amine]
13 | > 20000 nM | 332 nM | 68.8 nM |  | CN(C)[C@H]1CCN(c2nc(NCc3nc4ccccc4[nH]3)n3ncc(Br)c3n2)C1 [Example 177, N-[(1H-benzimidazol-2-yl)methyl]-8-bromo-2-[(3S)-3-(dimethylamino)pyrrolidin-1-yl]pyrazolo[1,5-a][1,3,5]triazin-4-amine]
14 | > 20000 nM | 261 nM | 313 nM |  | COCCNc1nc(NCc2nc3ccccc3[nH]2)n2ncc(Br)c2n1 [Example 230, N4-(1H-benzimidazol-2-ylmethyl)-8-bromo-N2-(2-methoxyethyl)pyrazolo[1,5-a][1,3,5]triazine-2,4-diamine]
15 | > 20000 nM | 123 nM | 62.7 nM |  | CC1(O)CCN(c2nc(NCc3nc4ccccc4[nH]3)n3ncc(Br)c3n2)C1 (centres unmarked) [Example 225, 1-[4-(1H-benzimidazol-2-ylmethylamino)-8-bromo-pyrazolo[1,5-a][1,3,5]triazin-2-yl]-3-methyl-pyrrolidin-3-ol]
16 | > 20000 nM |  | 3670 nM |  | Cc1cc(-c2cnn3c(NCc4nc5ccccc5[nH]4)nc(N4CCN(C)CC4)nc23)ccn1 [Example 243, N-[(1H-benzimidazol-2-yl)methyl]-2-(4-methylpiperazin-1-yl)-8-(2-methylpyridin-4-yl)pyrazolo[1,5-a][1,3,5]triazin-4-amine]
17 | > 20000 nM | 81.1 nM | 38.2 nM |  | OC1CCCN(c2nc(NCc3nc4ccccc4[nH]3)n3ncc(Br)c3n2)C1 (racemic) [Example 16, (rac)-1-(4-{[(1H-benzimidazol-2-yl)methyl]amino}-8-bromopyrazolo[1,5-a][1,3,5]triazin-2-yl)piperidin-3-ol]
18 | > 20000 nM |  | 3.25 nM | 0.973 nM | C[C@@H]1CN(c2nc(NCc3nc4ccccc4[nH]3)n3ncc(Br)c3n2)CCN1 [Example 168, N-[(1H-benzimidazol-2-yl)methyl]-8-bromo-2-[(3R)-3-methylpiperazin-1-yl]pyrazolo[1,5-a][1,3,5]triazin-4-amine]
19 | > 20000 nM |  |  | 14.5 nM | CC1CN(c2nc(NCc3nc4ccccc4[nH]3)n3ncc(C(C)C)c3n2)CCO1 (racemic) [Example 11, (rac)-N-[(1H-benzimidazol-2-yl)methyl]-2-[2-methylmorpholin-4-yl]-8-(propan-2-yl)pyrazolo[1,5-a][1,3,5]triazin-4-amine]
20 | > 20000 nM | 128 nM | 57 nM |  | O[C@H]1CCN(c2nc(NCc3nc4ccccc4[nH]3)n3ncc(Br)c3n2)C1 [Example 224, (3S)-1-(4-{[(1H-benzimidazol-2-yl)methyl]amino}-8-bromopyrazolo[1,5-a][1,3,5]triazin-2-yl)pyrrolidin-3-ol]
21 | > 20000 nM | 349 nM | 270 nM |  | CO[C@@H]1CCN(c2nc(NCc3nc4ccccc4[nH]3)n3ncc(Br)c3n2)C1 [Example 223, N-[(1H-benzimidazol-2-yl)methyl]-8-bromo-2-[(3R)-3-methoxypyrrolidin-1-yl]pyrazolo[1,5-a][1,3,5]triazin-4-amine]
22 | > 20000 nM | 253 nM | 857 nM |  | CN1CCN(c2nc(NCc3nc4ccccc4[nH]3)n3ncc(-c4ccncc4)c3n2)CC1 [Example 242, N-[(1H-benzimidazol-2-yl)methyl]-2-(4-methylpiperazin-1-yl)-8-(pyridin-4-yl)pyrazolo[1,5-a][1,3,5]triazin-4-amine]
23 | > 20000 nM | 434 nM | 273 nM |  | OCCNc1nc(NCc2nc3ccccc3[nH]2)n2ncc(Br)c2n1 [Example 228, 2-[(4-{[(1H-benzimidazol-2-yl)methyl]amino}-8-bromopyrazolo[1,5-a][1,3,5]triazin-2-yl)amino]ethan-1-ol]
24 | > 20000 nM | 145 nM | 158 nM |  | CCN(C)c1nc(NCc2nc3ccccc3[nH]2)n2ncc(Br)c2n1 [Example 233, N4-(1H-benzimidazol-2-ylmethyl)-8-bromo-N2-ethyl-N2-methyl-pyrazolo[1,5-a][1,3,5]triazine-2,4-diamine]
25 | > 20000 nM | 290 nM | 126 nM |  | CN(C)C1CCN(c2nc(NCc3nc4ccccc4[nH]3)n3ncc(Br)c3n2)CC1 [Example 201, N-[(1H-benzimidazol-2-yl)methyl]-8-bromo-2-[4-(dimethylamino)piperidin-1-yl]pyrazolo[1,5-a][1,3,5]triazin-4-amine]
26 | > 20000 nM | 501 nM | 96.8 nM |  | CN(C)[C@@H]1CCN(c2nc(NCc3nc4ccccc4[nH]3)n3ncc(Br)c3n2)C1 [Example 178, N-[(1H-benzimidazol-2-yl)methyl]-8-bromo-2-[(3R)-3-(dimethylamino)pyrrolidin-1-yl]pyrazolo[1,5-a][1,3,5]triazin-4-amine]
